Patent US11053204B2, “Pyrimidinyloxy benzene derivatives as herbicides” (FMC Corporation, priority 2015, dated 2021)

Experiments:
Type in all cases: in vivo
[1] = test system: ragweed (common ragweed, Ambrosia elatior); assay: Test C postemergence, plant response rating; conditions: Ambrosia artemisiifolia, post-emergence
Description: (§1) Seeds of plant species selected from blackgrass (Alopecurus myosuroides), ryegrass, Italian (Italian ryegrass, Lolium multiflorum), wheat (winter wheat, Triticum aestivum), galium (catchweed bedstraw, Galium aparine), corn (Zea mays), crabgrass, large (large crabgrass, Digitaria sanguinalis), foxtail, giant (giant foxtail, Setaria faberii), johnsongrass (Sorghum halepense), lambsquarters (Chenopodium album), morningglory (Ipomoea coccinea), nutsedge, yellow (yellow nutsedge, Cyperus esculentus), pigweed (Amaranthus retroflexus), ragweed (common ragweed, Ambrosia elatior), soybean (Glycine max), barnyardgrass (Echinochloa crus-galli), oilseed rape (Brassica napus), pigweed, palmer (palmer pigweed, Amaranthus palmeri), waterhemp (common waterhemp, Amaranthus rudis), velvetleaf (Abutilon theophrasti), kochia (Kochia scoparia), surinam grass (Brachiaria decumbens), nightshade (eastern black nightshade, Solanum ptycanthum), wild poinsettia (Euphorbia heterophylla), windgrass (Apera spica-venti), and oat, wild (wild oat Avena fatua), were planted into a blend of loam soil and sand or a silt loam soil and treated preemergence with test chemicals formulated in a non-phytotoxic solvent mixture which included a surfactant.
(§2) At the same time, plants selected from these crop and weed species and also chickweed (common chickweed, Stellaria media), buckwheat, wild (wild buckwheat, Polygonum convolvulus), wild mustard (Sinapis arvensis), field poppy (Papaver rhoeas), field violet (Viola arvensis), geranium, cutleaf (cutleaf geranium, Geranium dissectum), Canada thistle (Cirsium arvense), and speedwell (bird's-eye speedwell, Veronica persica), were planted in pots containing Sunshine Redi-Earth® planting medium comprising spaghnum peat moss, vermiculite, starter nutrients and dolomitic limestone and treated with postemergence applications of test chemicals formulated in the same manner. Plants ranged in height from 2 to 18 cm (1- to 4-leaf stage) for postemergence treatments. Treated plants and controls were maintained in a greenhouse for 13 to 15 d, after which time all species were compared to controls and visually evaluated. Plant response ratings, summarized in Table C, are based on a scale of 0 to 100 where 0 is no effect and 100 is complete control. A dash (-) response means no test result.

[2] = test system: oat, wild (wild oat Avena fatua); assay: Test C postemergence, plant response rating; conditions: Avena fatua, post-emergence
Description: as §1, §2

[3] = test system: soybean (Glycine max); assay: Test C postemergence, plant response rating; conditions: Glycine max, post-emergence
Description: as §1, §2

[4] = test system: foxtail, giant (giant foxtail, Setaria faberii); assay: Test C postemergence, plant response rating; conditions: Setaria faberi, post-emergence
Description: as §1, §2

[5] = test system: waterhemp (common waterhemp, Amaranthus rudis); assay: Test C postemergence, plant response rating; conditions: for Plant response rating, Waterhemp: scale 0 to 100; for Waterhemp plant response rating: scale 0 to 100 (0 no effect, 100 complete control)
Description: as §1, §2

[6] = test system: chickweed (common chickweed, Stellaria media); assay: Test C postemergence, plant response rating; conditions: Stellaria media, post-emergence
Description: as §1, §2

[7] = test system: velvetleaf (Abutilon theophrasti); assay: Test C postemergence, plant response rating; conditions: Abutilon theophrasti, post-emergence
Description: as §1, §2

[8] = test system: ryegrass, Italian (Italian ryegrass, Lolium multiflorum); assay: Test C postemergence, plant response rating; conditions: Lolium multiflorum, post-emergence
Description: as §1, §2

[9] = test system: lambsquarters (Chenopodium album); assay: Test C postemergence, plant response rating; conditions: Chenopodium album, post-emergence
Description: as §1, §2

[10] = test system: galium (catchweed bedstraw, Galium aparine); assay: Test A postemergence, visual injury rating; conditions: Galium, post-emergence, 240 h, 0 is no effect, 100 is complete control, read-out: Galium plant response rating (0 to 100 scale)
Procedure, shortened: (§3)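 Pre- and postemergence greenhouse screen. Soil: loam + sand. Spray carrier: solvent mixture, non-phytotoxic, with surfactant. Post timing at 1–2 leaves, height 2–10 cm. Readout: visual injury on a 0–100 scale roughly 10 days after application, untreated plants as reference.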

[11] = test system: ragweed (common ragweed, Ambrosia elatior); assay: Test A postemergence, visual injury rating; conditions: Ambrosia artemisiifolia, post-emergence, 240 h, 0 is no effect, 100 is complete control, read-out: Ragweed plant response rating (0 to 100 scale)
Procedure, shortened: as §3

[12] = test system: barnyardgrass (Echinochloa crus-galli); assay: Test A postemergence, visual injury rating; conditions: Echinochloa crus-galli, post-emergence, 240 h, 0 is no effect, 100 is complete control, read-out: Barnyardgrass plant response rating (0 to 100 scale)
Procedure, shortened: as §3

[13] = test system: corn (Zea mays); assay: Test A postemergence, visual injury rating; conditions: Zea mays, post-emergence, 240 h, 0 is no effect, 100 is complete control, read-out: Corn plant response rating (0 to 100 scale)
Procedure, shortened: as §3

[14] = test system: kochia (Kochia scoparia); assay: Test A postemergence, visual injury rating; conditions: Bassia scoparia, post-emergence, 240 h, 0 is no effect, 100 is complete control, read-out: Kochia plant response rating (0 to 100 scale)
Procedure, shortened: as §3

[15] = test system: wheat (Triticum aestivum); assay: Test A postemergence, visual injury rating; conditions: Triticum aestivum, post-emergence, 240 h, 0 is no effect, 100 is complete control, read-out: Wheat plant response rating (0 to 100 scale)
Procedure, shortened: as §3

[16] = test system: giant foxtail (Setaria faberii); assay: Test A postemergence, visual injury rating; conditions: Setaria faberi, post-emergence, 240 h, 0 is no effect, 100 is complete control, read-out: Foxtail, Giant plant response rating (0 to 100 scale)
Procedure, shortened: as §3

[17] = test system: Italian ryegrass (Lolium multiflorum); assay: Test A postemergence, visual injury rating; conditions: Lolium multiflorum, post-emergence, 240 h, 0 is no effect, 100 is complete control, read-out: Ryegrass, Italian plant response rating (0 to 100 scale)
Procedure, shortened: as §3

[18] = test system: blackgrass (Alopecurus myosuroides); assay: Test A postemergence, visual injury rating; conditions: Alopecurus myosuroides, post-emergence, 240 h, 0 is no effect, 100 is complete control, read-out: Blackgrass plant response rating (0 to 100 scale)
Procedure, shortened: as §3

[19] = test system: pigweed (Amaranthus retroflexus); assay: Test A postemergence, visual injury rating; conditions: Amaranthus retroflexus, post-emergence, 240 h, 0 is no effect, 100 is complete control, read-out: Pigweed plant response rating (0 to 100 scale)
Procedure, shortened: as §3

[20] = 62 g ai/ha, scale 0 to 100 (0 no effect, 100 complete control)
[21] = 125 g ai/ha, scale 0 to 100 (0 no effect, 100 complete control)

O=C(OCCC(F)(F)F)c1c(Br)cccc1Oc1ncc(Cl)cn1 [Compound 26, 3,3,3-trifluoropropyl 2-bromo-6-[(5-chloro-2-pyrimidinyl)oxy]benzoate]
pest or weed control at 16 g/ha ([1]; 16 g ai/ha, scale 0 to 100): 40%
pest or weed control at 31 g/ha ([1]; 31 g ai/ha, scale 0 to 100): 55%
pest or weed control at 62 g/ha [1, 20]: 55%
pest or weed control at 125 g/ha [1, 21]: 90%
pest or weed control at 16 g/ha ([2]; 16 g ai/ha, scale 0 to 100): 10%
pest or weed control at 31 g/ha ([2]; 31 g ai/ha, scale 0 to 100): 10%
pest or weed control at 62 g/ha [2, 20]: 15%
pest or weed control at 125 g/ha [2, 21]: 35%
plant injury at 16 g/ha ([3]; 16 g ai/ha, scale 0 to 100): 65%
plant injury at 31 g/ha ([3]; 31 g ai/ha, scale 0 to 100): 55%
plant injury at 62 g/ha [3, 20]: 65%
plant injury at 125 g/ha [3, 21]: 75%
pest or weed control at 16 g/ha ([4]; 16 g ai/ha, scale 0 to 100): 10%
pest or weed control at 31 g/ha ([4]; 31 g ai/ha, scale 0 to 100): 10%
pest or weed control at 62 g/ha [4, 20]: 10%
pest or weed control at 125 g/ha [4, 21]: 25%
Plant response rating, Waterhemp ([5]; 16 g ai/ha): 95
Plant response rating, Waterhemp ([5]; 31 g ai/ha): 98
Waterhemp plant response rating ([5]; 62 g ai/ha): 98
Waterhemp plant response rating ([5]; 125 g ai/ha): 100
pest or weed control at 16 g/ha ([6]; 16 g ai/ha, scale 0 to 100): 55%
pest or weed control at 31 g/ha ([6]; 31 g ai/ha, scale 0 to 100): 80%
pest or weed control at 62 g/ha [6, 20]: 85%
pest or weed control at 125 g/ha [6, 21]: 98%
pest or weed control at 16 g/ha ([7]; 16 g ai/ha, scale 0 to 100): 30%
pest or weed control at 31 g/ha ([7]; 31 g ai/ha, scale 0 to 100): 55%
pest or weed control at 62 g/ha ([7]; 62 g ai/ha, scale 0 to 100 (0 no effect, 100 complete control), read-out: Velvetleaf plant response rating): 75%
pest or weed control at 125 g/ha [7, 21]: 80%
pest or weed control at 16 g/ha ([8]; 16 g ai/ha, scale 0 to 100): 5%
pest or weed control at 31 g/ha ([8]; 31 g ai/ha, scale 0 to 100): 5%
pest or weed control at 62 g/ha [8, 20]: 10%
pest or weed control at 125 g/ha [8, 21]: 10%
pest or weed control at 16 g/ha ([9]; 16 g ai/ha, scale 0 to 100): 75%
pest or weed control at 31 g/ha ([9]; 31 g ai/ha, scale 0 to 100): 90%
pest or weed control at 62 g/ha [9, 20]: 98%
pest or weed control at 125 g/ha [9, 21]: 98%
pest or weed control at 125 g/ha ([10]; 125 g ai/ha): 100%
pest or weed control at 500 g/ha ([10]; 500 g ai/ha): 100%
pest or weed control at 125 g/ha ([11]; 125 g ai/ha): 30%
pest or weed control at 500 g/ha ([11]; 500 g ai/ha): 60%
pest or weed control at 125 g/ha ([12]; 125 g ai/ha): 100%
pest or weed control at 500 g/ha ([12]; 500 g ai/ha): 100%
plant injury at 125 g/ha ([13]; 125 g ai/ha): 60%
plant injury at 500 g/ha ([13]; 500 g ai/ha): 100%
pest or weed control at 125 g/ha ([14]; 125 g ai/ha): 100%
pest or weed control at 500 g/ha ([14]; 500 g ai/ha): 100%
plant injury at 125 g/ha ([15]; 125 g ai/ha): 40%
plant injury at 500 g/ha ([15]; 500 g ai/ha): 90%
pest or weed control at 125 g/ha ([16]; 125 g ai/ha): 100%
pest or weed control at 500 g/ha ([16]; 500 g ai/ha): 100%
pest or weed control at 125 g/ha ([17]; 125 g ai/ha): 70%
pest or weed control at 500 g/ha ([17]; 500 g ai/ha): 80%
pest or weed control at 125 g/ha ([18]; 125 g ai/ha): 100%
pest or weed control at 500 g/ha ([18]; 500 g ai/ha): 100%
pest or weed control at 125 g/ha ([19]; 125 g ai/ha): 100%
pest or weed control at 500 g/ha ([19]; 500 g ai/ha): 100%
